Test results from patent US4401660A, “Ester derivatives of 5-O-mycaminosyl tylonolide and method of using same” (Eli Lilly and Company, priority 1981, dated 1983).

How the values were obtained:
[1] = tested on: Haemophilus influenzae Holt; test: MIC, standard agar-dilution assay (Table II); assay type: cell-based; design: unit not given here; settings: ampicillin-sensitive strain
Method: (§1) The MIC's in Table II were determined by standard agar-dilution assays. The MIC's in Table III were obtained using a conventional broth-dilution microtiter test.

[2] = tested on: Haemophilus influenzae R252; test: MIC, standard agar-dilution assay (Table II); assay type: cell-based; design: unit not given here; settings: Haemophilus influenzae R252, ampicillin-resistant strain
Method: as §1

[3] = tested on: Staphylococcus aureus S13E; test: MIC, standard agar-dilution assay (Table II); assay type: cell-based; design: unit not given here
Method: as §1

[4] = tested on: Staphylococcus aureus V41; test: MIC, standard agar-dilution assay (Table II); assay type: cell-based; design: unit not given here; settings: Staphylococcus aureus V41, penicillin-resistant strain
Method: as §1

[5] = tested on: Staphylococcus aureus X1.1; test: MIC, standard agar-dilution assay (Table II); assay type: cell-based; design: unit not given here
Method: as §1

[6] = tested on: Staphylococcus aureus X400; test: MIC, standard agar-dilution assay (Table II); assay type: cell-based; design: unit not given here; settings: Staphylococcus aureus X400, methicillin-resistant strain
Method: as §1

[7] = tested on: Staphylococcus epidermidis EPI1; test: MIC, standard agar-dilution assay (Table II); assay type: cell-based; design: unit not given here
Method: as §1

[8] = tested on: Staphylococcus epidermidis EPI2; test: MIC, standard agar-dilution assay (Table II); assay type: cell-based; design: unit not given here
Method: as §1

[9] = tested on: Streptococcus Group D 9960; test: MIC, standard agar-dilution assay (Table II); assay type: cell-based; design: unit not given here
Method: as §1

[10] = tested on: Streptococcus Group D X66; test: MIC, standard agar-dilution assay (Table II); assay type: cell-based; design: unit not given here
Method: as §1

[11] = tested on: Streptococcus pneumoniae Park I; test: MIC, standard agar-dilution assay (Table II); assay type: cell-based; design: unit not given here
Method: as §1

[12] = tested on: Streptococcus pyogenes C203; test: MIC, standard agar-dilution assay (Table II); assay type: cell-based; design: unit not given here
Method: as §1

Mycoplasma gallisepticum = test: MIC, broth-dilution microtiter test (Table III); assay type: cell-based; design: unit not given here
Method: as §1

Mycoplasma hyorhinis = test: MIC, broth-dilution microtiter test (Table III); assay type: cell-based; design: unit not given here
Method: as §1

Mycoplasma synoviae = test: MIC, broth-dilution microtiter test (Table III); assay type: cell-based; design: unit not given here
Method: as §1

[13] = tested on: Pasteurella haemolytica 22C; test: MIC, broth-dilution microtiter test (Table III); assay type: cell-based; design: unit not given here
Method: as §1

[14] = tested on: Pasteurella haemolytica 23C; test: MIC, broth-dilution microtiter test (Table III); assay type: cell-based; design: unit not given here
Method: as §1

[15] = tested on: Pasteurella haemolytica 41D; test: MIC, broth-dilution microtiter test (Table III); assay type: cell-based; design: unit not given here
Method: as §1

[16] = tested on: Pasteurella multocida 17E; test: MIC, broth-dilution microtiter test (Table III); assay type: cell-based; design: unit not given here; settings: bovine isolate
Method: as §1

[17] = tested on: Pasteurella multocida 22A; test: MIC, broth-dilution microtiter test (Table III); assay type: cell-based; design: unit not given here
Method: as §1

[18] = tested on: Pasteurella multocida 40G; test: MIC, broth-dilution microtiter test (Table III); assay type: cell-based; design: unit not given here
Method: as §1

[19] = tested on: Pasteurella multocida 60A; test: MIC, broth-dilution microtiter test (Table III); assay type: cell-based; design: unit not given here; settings: avian isolate
Method: as §1

[20] = tested on: Pasteurella multocida 68C; test: MIC, broth-dilution microtiter test (Table III); assay type: cell-based; design: unit not given here
Method: as §1

Staphylococcus aureus = test: MIC, broth-dilution microtiter test (Table III); assay type: cell-based; design: unit not given here
Method: as §1

Streptococcus sp. 80 = test: MIC, broth-dilution microtiter test (Table III); assay type: cell-based; design: unit not given here
Method: as §1

Pasteurella multocida = test: Treatment of Pasteurella infections in chicks (Table V); assay type: in vivo, one-day-old chicks; settings: Pasteurella multocida, sc, 4 h; 30 mg/kg by subcutaneous injection one and four hours post challenge; read-out: Deaths in Treated Chicks/Number Treated (converted)
Method in brief: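 One-day-old chicks challenged subcutaneously with avian P. multocida (0.1 ml of 10^-3 dilution of 20-hour tryptose broth culture). Esters given at 30 mg/kg subcutaneously at 1 and 4 hours post challenge. Untreated infected controls, ten per group.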

SMILES | minimal inhibitory concentration (MIC) [1] | minimal inhibitory concentration (MIC) [2] | minimal inhibitory concentration (MIC) [3] | minimal inhibitory concentration (MIC) [4] | minimal inhibitory concentration (MIC) [5] | minimal inhibitory concentration (MIC) [6] | minimal inhibitory concentration (MIC) [7] | minimal inhibitory concentration (MIC) [8] | minimal inhibitory concentration (MIC) [9] | minimal inhibitory concentration (MIC) [10] | minimal inhibitory concentration (MIC) [11] | minimal inhibitory concentration (MIC) [12] | minimal inhibitory concentration (MIC) (Mycoplasma gallisepticum) | minimal inhibitory concentration (MIC) (Mycoplasma hyorhinis) | minimal inhibitory concentration (MIC) (Mycoplasma synoviae) | minimal inhibitory concentration (MIC) [13] | minimal inhibitory concentration (MIC) [14] | minimal inhibitory concentration (MIC) [15] | minimal inhibitory concentration (MIC) [16] | minimal inhibitory concentration (MIC) [17] | other results
CCC(=O)OCC1C=C(C)C=CC(=O)C(C)CC(CC=O)C(OC2OC(C)C(OC(=O)CC)C(N(C)C)C2OC(=O)CC)C(C)C(O)CC(=O)OC1CC (stereo not drawn) [Compound 8, 2',4',23-Tri-O-propionyl-OMT] | 2 | 4 | 0.5 | 0.5 | 0.25 | 0.5 | 0.25 | 0.25 | 0.5 | 0.5 | 0.25 | 0.25 | 0.048 | 0.78 | 0.048 | 3.12 | 6.25 | 3.12 | 1.56 | 3.12 | minimal inhibitory concentration (MIC) [18]: 1.56; minimal inhibitory concentration (MIC) [19]: 1.56; minimal inhibitory concentration (MIC) [20]: 1.56; minimal inhibitory concentration (MIC) (Staphylococcus aureus): 0.39; minimal inhibitory concentration (MIC) (Streptococcus sp. 80): 0.195; mortality at 30 mg/kg (Pasteurella multocida): 60%
CCC(=O)OCC1C=C(C)C=CC(=O)C(C)CC(CC=O)C(OC2OC(C)C(O)C(N(C)C)C2OC(=O)CC)C(C)C(O)CC(=O)OC1CC (stereo not drawn) [Compound 10, 2',23-Di-O-Propionyl-OMT] | 2 | 8 | 0.5 | 0.5 | 0.25 | 0.5 | 0.25 | 0.25 | 0.5 | 0.5 | 0.125 | 0.25 | 0.097 | 0.78 | 0.097 | 6.25 | 6.25 | 6.25 | 1.56 | 6.25 | minimal inhibitory concentration (MIC) [18]: 1.56; minimal inhibitory concentration (MIC) [19]: 1.56; minimal inhibitory concentration (MIC) [20]: 1.56; minimal inhibitory concentration (MIC) (Staphylococcus aureus): 0.39; minimal inhibitory concentration (MIC) (Streptococcus sp. 80): 0.195; mortality at 30 mg/kg (Pasteurella multocida): 10%
CCC1OC(=O)CC(O)C(C)C(OC2OC(C)C(O)C(N(C)C)C2OC(C)=O)C(CC=O)CC(C)C(=O)C=CC(C)=CC1COC(=O)COc1ccccc1 (stereo not drawn) [Compound 35] | 1 | 1 | 0.125 | 0.125 | 0.125 | 0.125 | 0.125 | 0.125 | 0.125 | 0.125 | 0.03 | 0.06 | < 0.05 | 3.12 | 0.097 | 3.12 | 3.12 | 1.56 | 1.56 | 6.25 | minimal inhibitory concentration (MIC) [18]: 3.12; minimal inhibitory concentration (MIC) [19]: 1.56; minimal inhibitory concentration (MIC) [20]: 1.56; minimal inhibitory concentration (MIC) (Staphylococcus aureus): 0.39; minimal inhibitory concentration (MIC) (Streptococcus sp. 80): 0.097; mortality at 30 mg/kg (Pasteurella multocida): 10%
CCC1OC(=O)CC(O)C(C)C(OC2OC(C)C(OC(C)=O)C(N(C)C)C2OC(C)=O)C(CC=O)CC(C)C(=O)C=CC(C)=CC1COS(=O)(=O)c1ccc(C)cc1 (stereo not drawn) [Compound 55] | 1 | 1 | 0.25 | 0.125 | 0.125 | 0.25 | 0.25 | 0.25 | 0.125 | 0.125 | 0.03 | 0.06 | 0.05 | 0.78 | 0.05 | 3.12 | 3.12 | 6.25 | 3.12 | 6.25 | minimal inhibitory concentration (MIC) [18]: 6.25; minimal inhibitory concentration (MIC) [19]: 3.12; minimal inhibitory concentration (MIC) [20]: 3.12; minimal inhibitory concentration (MIC) (Staphylococcus aureus): 0.195; minimal inhibitory concentration (MIC) (Streptococcus sp. 80): 0.05; mortality at 30 mg/kg (Pasteurella multocida): 100%
CCC1OC(=O)CC(O)C(C)C(OC2OC(C)C(O)C(N(C)C)C2O)C(CC=O)CC(C)C(=O)C=CC(C)=CC1COS(=O)(=O)c1ccc(NC(C)=O)cc1 (stereo not drawn) [Compound 56, 23-O-(p-Acetamidobenzenesulfonyl)-OMT] | 2 | 2 | 1 | 2 | 1 | 2 | 0.5 | 2 | 1 | 1 | 0.06 | 0.125 | 0.39 | 12.5 | 0.78 | 6.25 | 6.25 | 6.25 | 3.12 | 6.25 | minimal inhibitory concentration (MIC) [18]: 6.25; minimal inhibitory concentration (MIC) [19]: 3.12; minimal inhibitory concentration (MIC) [20]: 3.12; minimal inhibitory concentration (MIC) (Staphylococcus aureus): 0.78; minimal inhibitory concentration (MIC) (Streptococcus sp. 80): 0.195; mortality at 30 mg/kg (Pasteurella multocida): 100%
CCC1OC(=O)CC(O)C(C)C(OC2OC(C)C(O)C(N(C)C)C2O)C(CC=O)CC(C)C(=O)C=CC(C)=CC1COC(=O)Cc1cc(OC)ccc1OC (stereo not drawn) [Compound 63] | 1 | 2 | 0.25 | 0.25 | 0.125 | 0.25 | 0.25 | 0.25 | 0.25 | 0.125 | 0.03 | 0.06 | 0.39 | 1.56 | < 0.05 | 6.25 | 6.25 | 12.5 | 6.25 | 6.25 | minimal inhibitory concentration (MIC) [18]: 3.12; minimal inhibitory concentration (MIC) [19]: 3.12; minimal inhibitory concentration (MIC) [20]: 6.25; minimal inhibitory concentration (MIC) (Staphylococcus aureus): 1.56; minimal inhibitory concentration (MIC) (Streptococcus sp. 80): 0.195; mortality at 30 mg/kg (Pasteurella multocida): 75%
